{
  "source": "patent US20240270744A1",
  "about": "(Hoffmann-La Roche Inc., priority 2021, published 2024)",
  "key": {"h-GABA-A α2β2γ1": {"molecular_target": "h-GABA-A α2β2γ1 (Homo sapiens (Human), UniProt P47869+Q8N1C3)", "assay": "Two-electrode voltage clamp electrophysiology in Xenopus oocytes expressing GABAA receptors", "assay_type": "cell-based", "details": "Table 2; for Efficacy (GABA) %: % modulation of GABA EC20 = 100*(Fold increase-1), compound at 30-fold Ki; for Fold increase h-GABA-A α2β2γ1 oocyte @ 30-fold Ki: GABA EC20, test compound at approx. 30-fold its Ki α2β2γ1, Xenopus oocytes, -80 mV"}, "[1]": {"molecular_target": "human GABAA α1β3γ2 receptor (Homo sapiens (Human), UniProt P14867+P18507)", "assay": "Radioligand binding assay, competition for [3H]Flumazenil, γ2-containing GABAA subtypes", "details": "Table 1; [3H]Flumazenil displacement, HEK293F cells, mean of two determinations; read-out: Ki h-GABAA α1β3γ2", "how_it_was_run": "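Transiently transfected HEK293F cells expressing human α1β3γ2 receptors, prepared in Mannitol Buffer pH 7.2-7.4, competed for [3H]Flumazenil (81.1 Ci/mmol) binding. Incubation ran to equilibrium for 1 hour at 4 °C, followed by filtration and scintillation counting. Ki values are means of two determinations.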"}, "[2]": {"molecular_target": "human GABAA α2β2γ1 receptor (Homo sapiens (Human), UniProt P47869+Q8N1C3)", "assay": "Radioligand binding assay, competition for [3H]RO7239181, γ1-containing GABAA subtypes", "details": "for Ki: [3H]RO7239181 displacement; for γ2/γ1 Selectivity Ratio / LogSel: Table 1; for γ2/γ1 Selectivity Ratio: Ki α1β3γ2 (nM)/Ki α2β2γ1 (nM); for LogSel: Log of the γ2/γ1 Ki ratio"}, "[3]": {"details": "Ki h-GABAA α2β2γ1, Table 1, membranes from HEK293F cells, mean of two determinations"}},
  "data": [
    {"smiles": "C[C@@H]1N=C(c2c(F)cccc2F)c2c(cnc(C(F)(F)F)c2Cl)-n2cc(C(=O)NCCO)nc21", "note": "[Example 19, (7S)-11-chloro-9-(2,6-difluorophenyl)-N-(2-hydroxyethyl)-7-methyl-12-(trifluoromethyl)-2,5,8,13-tetrazatricyclo[8.4.0.02,6]tetradeca-1(10),3,5,8,11,13-hexaene-4-carboxamide]", "values": [
      {"measurement": "Efficacy (GABA) %", "setting": "h-GABA-A α2β2γ1", "result": 170, "unit": "%"},
      {"measurement": "Fold increase h-GABA-A α2β2γ1 oocyte @ 30-fold Ki", "setting": "h-GABA-A α2β2γ1", "result": 2.70},
      {"measurement": "Ki", "setting": "[1]", "result": 5100, "unit": "nM"},
      {"measurement": "Ki", "setting": "[2]; [3]", "result": 21.2, "unit": "nM"},
      {"measurement": "Ki", "setting": "[2]; Ki h-GABAA α2β2γ1, Table 2", "result": 23.2, "unit": "nM"},
      {"measurement": "γ2/γ1 Selectivity Ratio", "setting": "[2]", "result": 241},
      {"measurement": "LogSel", "setting": "[2]", "result": 2.38}
    ]},
    {"smiles": "C[C@@H]1N=C(c2c(F)cccc2F)c2c(cnc(C(F)(F)F)c2Cl)-n2c1nc1c2CCC1", "note": "[Example 20, (10S)-6-chloro-8-(2,6-difluorophenyl)-10-methyl-5-(trifluoromethyl)-1,4,9,12-tetrazatetracyclo[9.6.0.02,7.013,17]heptadeca-2(7),3,5,8,11,13(17)-hexaene]", "values": [
      {"measurement": "Efficacy (GABA) %", "setting": "h-GABA-A α2β2γ1", "result": 108, "unit": "%"},
      {"measurement": "Fold increase h-GABA-A α2β2γ1 oocyte @ 30-fold Ki", "setting": "h-GABA-A α2β2γ1", "result": 2.08},
      {"measurement": "Ki", "setting": "[1]", "result": 1090, "unit": "nM"},
      {"measurement": "Ki", "setting": "[2]; [3]", "result": 11.8, "unit": "nM"},
      {"measurement": "Ki", "setting": "[2]; Ki h-GABAA α2β2γ1, Table 2", "result": 15.1, "unit": "nM"},
      {"measurement": "γ2/γ1 Selectivity Ratio", "setting": "[2]", "result": 92},
      {"measurement": "LogSel", "setting": "[2]", "result": 1.96}
    ]},
    {"smiles": "C[C@@H]1N=C(c2c(F)cccc2F)c2c(cnc(C(F)(F)F)c2Cl)-n2nc(C(=O)NCC(C)(C)O)nc21", "note": "[Example 21, (7S)-11-chloro-9-(2,6-difluorophenyl)-N-(2-hydroxy-2-methyl-propyl)-7-methyl-12-(trifluoromethyl)-2,3,5,8,13-pentazatricyclo[8.4.0.02,6]tetradeca-1(10),3,5,8,11,13-hexaene-4-carboxamide]", "values": [
      {"measurement": "Efficacy (GABA) %", "setting": "h-GABA-A α2β2γ1", "result": 175, "unit": "%"},
      {"measurement": "Fold increase h-GABA-A α2β2γ1 oocyte @ 30-fold Ki", "setting": "h-GABA-A α2β2γ1", "result": 2.75},
      {"measurement": "Ki", "setting": "[1]", "result": 11300, "unit": "nM"},
      {"measurement": "Ki", "setting": "[2]; [3]", "result": 72.3, "unit": "nM"},
      {"measurement": "Ki", "setting": "[2]; Ki h-GABAA α2β2γ1, Table 2", "result": 72.3, "unit": "nM"},
      {"measurement": "γ2/γ1 Selectivity Ratio", "setting": "[2]", "result": 156},
      {"measurement": "LogSel", "setting": "[2]", "result": 2.19}
    ]},
    {"smiles": "C[C@@H]1N=C(c2c(F)cccc2F)c2c(cnc(C(F)(F)F)c2Cl)-n2nc(C(=O)NCC3(O)CC3)nc21", "note": "[Example 22, (7S)-11-chloro-9-(2,6-difluorophenyl)-N-[(1-hydroxycyclopropyl)methyl]-7-methyl-12-(trifluoromethyl)-2,3,5,8,13-pentazatricyclo[8.4.0.02,6]tetradeca-1(10),3,5,8,11,13-hexaene-4-carboxamide]", "values": [
      {"measurement": "Efficacy (GABA) %", "setting": "h-GABA-A α2β2γ1", "result": 172, "unit": "%"},
      {"measurement": "Fold increase h-GABA-A α2β2γ1 oocyte @ 30-fold Ki", "setting": "h-GABA-A α2β2γ1", "result": 2.72},
      {"measurement": "Ki", "setting": "[1]", "result": 10600, "unit": "nM"},
      {"measurement": "Ki", "setting": "[2]; [3]", "result": 43.2, "unit": "nM"},
      {"measurement": "Ki", "setting": "[2]; Ki h-GABAA α2β2γ1, Table 2", "result": 43.2, "unit": "nM"},
      {"measurement": "γ2/γ1 Selectivity Ratio", "setting": "[2]", "result": 245},
      {"measurement": "LogSel", "setting": "[2]", "result": 2.39}
    ]}
  ]
}
